Broadly, the solubility is how much of the substance goes into solution per volume.

Values after ≈ are worked out from the molar mass of the structure shown.

This is an account of results in US12404262B2 (priority 2021, dated 2025).

Data set [1] can be described thus: Solubility in simulated intestinal fluids (FaSSIF/FeSSIF). Particulars: 25 °C, thermodynamic from solid.
For data set [2] the following is noted: 1.0% DMSO, 24-hour incubation at ambient temperature, maximum theoretical 100 μM; for pH 2 solubility: 0.1N HCl, first value of the cell; for pH 7 solubility: 1×PBS buffer (pH 7.4), second value of the cell.
Where [3] appears, read: fasted state simulated intestinal fluid (FaSSIF), fassif.
Setting [4] is: fed state simulated intestinal fluid (FeSSIF), fessif.

On to `CC(C)(C#Cc1ccc(-c2ccc(Cl)c3c(N(COC(=O)C(=O)O)S(C)(=O)=O)nn(CC(F)(F)F)c23)c([C@H](Cc2cc(F)cc(F)c2)NC(=O)Cn2nc(C(F)(F)F)c3c2C(F)(F)[C@@H]2C[C@H]32)n1)S(C)(=O)=O` [Compound 20, 2-((N-(4-chloro-7-(2-((S)-1-(2-((3bS,4aR)-5,5-difluoro-3-(trifluoromethyl)-3b,4,4a,5-tetrahydro-1H-cyclopropa[3,4]cyclopenta[1,2-c]pyrazol-1-yl)acetamido)-2-(3,5-difluorophenyl)ethyl)-6-(3-methyl-3-(methylsulfonyl)but-1-yn-1-yl)pyridin-3-yl)-1-(2,2,2-trifluoroethyl)-1H-indazol-3-yl)methylsulfonamido)methoxy)-2-oxoacetic acid], for which, in data set [1] (setting [3]), the solubility is 0.448 mg/mL (≈ 419 µM). For the same compound, the solubility in data set [1] (setting [4]) was 0.454 mg/mL (≈ 424 µM). In data set [2], the “pH 2 solubility” value was 13 μM and the “pH 7 solubility” value is on record as 100 μM.
On the same counts, the results for `CC(C)(C#Cc1ccc(-c2ccc(Cl)c3c(N(C(=O)OCCNC(=N)N)S(C)(=O)=O)nn(CC(F)(F)F)c23)c([C@H](Cc2cc(F)cc(F)c2)NC(=O)Cn2nc(C(F)(F)F)c3c2C(F)(F)[C@@H]2C[C@H]32)n1)S(C)(=O)=O` [Compound 123, 2-guanidinoethyl (4-chloro-7-(2-((S)-1-(2-((3bS,4aR)-5,5-difluoro-3-(trifluoromethyl)-3b,4,4a,5-tetrahydro-1H-cyclopropa[3,4]cyclopenta[1,2-c]pyrazol-1-yl)acetamido)-2-(3,5-difluorophenyl)ethyl)-6-(3-methyl-3-(methylsulfonyl)but-1-yn-1-yl)pyridin-3-yl)-1-(2,2,2-trifluoroethyl)-1H-indazol-3-yl)(methylsulfonyl)carbamate] are 0.12 mg/mL (≈ 109 µM), 0.153 mg/mL (≈ 139 µM), 78 μM and 71 μM.
On the same counts, the results for `CC(C)(C#Cc1ccc(-c2ccc(Cl)c3c(N(C(=O)OCCNC(=O)C(=O)O)S(C)(=O)=O)nn(CC(F)(F)F)c23)c([C@H](Cc2cc(F)cc(F)c2)NC(=O)Cn2nc(C(F)(F)F)c3c2C(F)(F)[C@@H]2C[C@H]32)n1)S(C)(=O)=O` [Compound 122, 2-((2-(((4-chloro-7-(2-((S)-1-(2-((3bS,4aR)-5,5-difluoro-3-(trifluoromethyl)-3b,4,4a,5-tetrahydro-1H-cyclopropa[3,4]cyclopenta[1,2-c]pyrazol-1-yl)acetamido)-2-(3,5-difluorophenyl)ethyl)-6-(3-methyl-3-(methylsulfonyl)but-1-yn-1-yl)pyridin-3-yl)-1-(2,2,2-trifluoroethyl)-1H-indazol-3-yl)(methylsulfonyl)carbamoyl)oxy)ethyl)amino)-2-oxoacetic acid] are 0.007 mg/mL (≈ 6.21 µM), 0.162 mg/mL (≈ 144 µM), 1 μM and 16 μM.
The corresponding values for `CC(C)(C#Cc1ccc(-c2ccc(Cl)c3c(N(C(=O)OC[C@H](CC(=O)O)NC(=O)C(=O)O)S(C)(=O)=O)nn(CC(F)(F)F)c23)c([C@H](Cc2cc(F)cc(F)c2)NC(=O)Cn2nc(C(F)(F)F)c3c2C(F)(F)[C@@H]2C[C@H]32)n1)S(C)(=O)=O` [Compound 131] are 0.816 mg/mL (≈ 688 µM), 0.427 mg/mL (≈ 360 µM), 1 μM and 73 μM.
On to `C[C@@H](N)C(=O)OCN(c1nn(CC(F)(F)F)c2c(-c3ccc(C#CC(C)(C)S(C)(=O)=O)nc3[C@H](Cc3cc(F)cc(F)c3)NC(=O)Cn3nc(C(F)(F)F)c4c3C(F)(F)[C@@H]3C[C@H]43)ccc(Cl)c12)S(C)(=O)=O` [Compound 26, (N-(4-chloro-7-(2-((S)-1-(2-((3bS,4aR)-5,5-difluoro-3-(trifluoromethyl)-3b,4,4a,5-tetrahydro-1H-cyclopropa[3,4]cyclopenta[1,2-c]pyrazol-1-yl)acetamido)-2-(3,5-difluorophenyl)ethyl)-6-(3-methyl-3-(methylsulfonyl)but-1-yn-1-yl)pyridin-3-yl)-1-(2,2,2-trifluoroethyl)-1H-indazol-3-yl)methylsulfonamido)methyl D-alaninate], for which the solubility in data set [1] (setting [3]) is 0.013 mg/mL (≈ 12.2 µM). For the same compound, the solubility in data set [1] (setting [4]) was 0.089 mg/mL (≈ 83.2 µM). Also, in data set [2], the “pH 2 solubility” value is given as 23 μM and the “pH 7 solubility” value was found to be 2 μM.
The corresponding values for `CN(CCN(CCC(=O)O)C(=O)OCOP(=O)(O)O)C(=O)N(c1nn(CC(F)(F)F)c2c(-c3ccc(C#CC(C)(C)S(C)(=O)=O)nc3[C@H](Cc3cc(F)cc(F)c3)NC(=O)Cn3nc(C(F)(F)F)c4c3C(F)(F)[C@@H]3C[C@H]43)ccc(Cl)c12)S(C)(=O)=O` [Compound 86, 3-((2-(3-(4-chloro-7-(2-((S)-1-(2-((3bS,4aR)-5,5-difluoro-3-(trifluoromethyl)-3b,4,4a,5-tetrahydro-1H-cyclopropa[3,4]cyclopenta[1,2-c]pyrazol-1-yl)acetamido)-2-(3,5-difluorophenyl)ethyl)-6-(3-methyl-3-(methylsulfonyl)but-1-yn-1-yl)pyridin-3-yl)-1-(2,2,2-trifluoroethyl)-1H-indazol-3-yl)-1-methyl-3-(methylsulfonyl)ureido)ethyl)(((phosphonooxy)methoxy)carbonyl)amino)propanoic acid] are 2.02 mg/mL (≈ 1560 µM), 1.47 mg/mL (≈ 1130 µM), 1 μM and 100 μM.
On the same counts, the results for `CN(C(=O)N(c1nn(CC(F)(F)F)c2c(-c3ccc(C#CC(C)(C)S(C)(=O)=O)nc3[C@H](Cc3cc(F)cc(F)c3)NC(=O)Cn3nc(C(F)(F)F)c4c3C(F)(F)[C@@H]3C[C@H]43)ccc(Cl)c12)S(C)(=O)=O)[C@@H](CCC(=O)O)C(=O)OCOP(=O)(O)O` [Compound 87, (S)-4-(3-(4-chloro-7-(2-((S)-1-(2-((3bS,4aR)-5,5-difluoro-3-(trifluoromethyl)-3b,4,4a,5-tetrahydro-1H-cyclopropa[3,4]cyclopenta[1,2-c]pyrazol-1-yl)acetamido)-2-(3,5-difluorophenyl)ethyl)-6-(3-methyl-3-(methylsulfonyl)but-1-yn-1-yl)pyridin-3-yl)-1-(2,2,2-trifluoroethyl)-1H-indazol-3-yl)-1-methyl-3-(methylsulfonyl)ureido)-5-oxo-5-((phosphonooxy)methoxy)pentanoic acid] are more than 2.48 mg/mL, 0.299 mg/mL (≈ 236 µM), 1 μM and 18 μM.
In the case of `CC(C)(C#Cc1ccc(-c2ccc(Cl)c3c(N(C(=O)OCCC(C(=O)O)C(=O)O)S(C)(=O)=O)nn(CC(F)(F)F)c23)c([C@H](Cc2cc(F)cc(F)c2)NC(=O)Cn2nc(C(F)(F)F)c3c2C(F)(F)[C@@H]2C[C@H]32)n1)S(C)(=O)=O` [Compound 126, 2-(2-(((4-chloro-7-(2-((S)-1-(2-((3bS,4aR)-5,5-difluoro-3-(trifluoromethyl)-3b,4,4a,5-tetrahydro-1H-cyclopropa[3,4]cyclopenta[1,2-c]pyrazol-1-yl)acetamido)-2-(3,5-difluorophenyl)ethyl)-6-(3-methyl-3-(methylsulfonyl)but-1-yn-1-yl)pyridin-3-yl)-1-(2,2,2-trifluoroethyl)-1H-indazol-3-yl)(methylsulfonyl)carbamoyl)oxy)ethyl)malonic acid], in data set [1] (setting [3]), the concentration in solution (solubility) was 0.021 mg/mL (≈ 18.4 µM). The solubility in data set [1] (setting [4]) is 0.218 mg/mL (≈ 191 µM). In data set [2], the “pH 2 solubility” value is 1 μM and the “pH 7 solubility” value is 5 μM.
